# Assay results from patent US20060142326A1, “Use of pyrazolopyridines for the treatment of cognitive deficits” (priority 2003, published 2006).
# Key:
# [1] = test system: granular cells of the cerebellum; assay: Toxicity induced by kainate on granular cells of the cerebellum, MTT test; type: cell-based, Wistar rat; conditions: 50 μM kainate, six hours
# Protocol: (§1) Seven day old Wistar rats are decapitated and their cerebella are dissected. After having removed the meninges, the tissue is cut into small pieces and trypsinised for 15 minutes at 37° C. The cells are disassociated by trituration and placed in cultures at a density of 300,000 cells per cm^2 in Eagle's base medium supplemented with 10% foetal calf serum and 2 mM glutamine. The following day 10 μM ARA-C, an antimitotic, is added so as to prevent proliferation of the glial cells. The cells are treated for 9 days after placing in culture with the etazolate inhibiting compound, before adding toxics, 50 μM kainate or 100 μM N-methyl-D-aspartate in the presence of 10 μM D-serine. 8-bromo-cAMP is added just before the toxics. All of the treatments are carried out at least in duplicate and in at least two different cultures. Following an incubation of six hours, the toxicity is measured by an MTT test. The results, standardised to the untreated average, are statistically analysed by the Wilcoxon test. The significant value is established at p less than or equal to 0.05. Toxicity is measured using the MTT test. Following incubation with the compounds, MTT is added at a final concentration of 0.5 mg/ml per well. The plaques are then incubated for 30 minutes at 37° C. in the dark. […] The absorbance at 550 nm is read and the viability percentage is calculated.
# cortical neurons [2] = assay: Toxicity induced by NMDA/serine on cortical neurons, MTT test; type: cell-based, Wistar rat; conditions: 20 μM NMDA + 10 μM D-serine, six hours
# Protocol: (§2) 16 day old Wistar rat embryos are taken and the cortexes dissected. Following trypsination at 37° C. for 25 minutes, the cells are dissociated by trituration. The cells are sown in minimum essential medium, supplemented with 10% horse serum and 10% foetal calf serum and 2 mM glutamine, at a density of 300,000 cells per cm^2. After 4 days in culture half of the medium is changed with minimum essential medium supplemented with 5% horse serum and 2 mM glutamine. […] After seven and eleven days of culture, half of the medium is changed with conditioned medium. The conditioned medium is made up from MEM containing 5% horse serum and 2 mM glutamine; this medium is passed over a carpet of cortical astrocytes for a night before being used. On day 14, the cells are treated with the etazolate inhibitor compound, before adding toxics, 50 μM kainate or 20 μM N-methyl-D-aspartate in the presence of 10 μM D-serine. All of the treatments are carried out at least in duplicate and in at least two different cultures. Following an incubation of six hours the toxicity is measured by an MTT test. The results, standardised to the untreated average, are statistically analysed by the Wilcoxon test. The significant value is established at ρ less than or equal to 0.05. Toxicity is measured using the MTT test. […] The absorbance at 550 nm is read and the viability percentage is calculated.
# SH-SY5Y cells = assay: Toxicity induced by 6-hydroxydopamine (oxidative stress) on SH-SY5Y cells, MTT test; type: cell-based, human; conditions: 6-OHDA treatment
# Protocol: In this example, cells from the SH-SY5Y line were placed in culture according to the techniques known to experts in the field. These cells, derived from a human neuroblast, have properties which characterise a neuronal precursor at a premature stage of development. The toxic used is 6-hydroxydopamine (6-OHDA) which induces oxidative stress. Toxicity is measured by an MTT test.
# [3] = test system: ventral spinal cord cells; assay: Toxicity induced by NMDA/serine on ventral spinal cord cells, MTT test; type: cell-based, Wistar rat; conditions: 25 μM NMDA + 10 μM D-serine, 3 hours
# Protocol: The cells are isolated from 14 day old Wistar rat embryos. Upon their arrival, the pregnant female rats are sacrificed by means of carbon dioxide. The series of embryos is taken and placed in a box containing PBS. The spinal cord of each embryo is dissected and the ventral cord is separated from the dorsal cords. The ventral cords are then trypsinised at 37° C. for 20 mins. The effect of the trypsin is halted by the addition of a medium made up from Leibovitz 15 medium, 20% horse serum, N2 (1×) supplement, 20% glucose (3.2 mg/ml), 7.5% bicarbonate (1.8 mg/ml) and L-glutamine (2 mM). The cells are dissociated by trituration. The accumulated tissue is removed and the dissociated cells are then quantified by dying with trypan blue. The cells sown at a density of 250 000 cells/cm^2 in a medium made up from neurobasal medium, horse serum (2%), B27 (1×) supplement, and glutamine (2 mM). After 3 days of in vitro culture, an anti-mitotic agent, ARA-C (5 μM), is added to the cells so as to inhibit production of glial cells. The cells are placed in culture at 37° C. in a humidified incubator (5% CO2) for 9 days. […] The results are standardised to the average of the untreated controls and analysed statistically by means of a Wilcoxon test with ρ less than 0.05. Toxicity is measured using the MTT test. […] The absorbance at 550 nm is read and the viability percentage is calculated.
# cortical neurons [4] = assay: Toxicity induced by kainate on cortical neurons, MTT test; type: cell-based, Wistar rat; conditions: 50 μM kainate, six hours
# Protocol: as §2
# [5] = test system: cerebral infarction in rats; assay: Model of cerebral infarction in rats (occlusion of the internal carotide and medium arteries of the brain); type: in vivo; conditions: rat
# Protocol: The in vivo protective effect of etazolate was evaluated in a model of cerebral infarction in rats. During this study, a cerebral infarction was brought about by an intracavity occlusion of the internal carotide and the medium arteries of the brain. A group of eight rats was treated with etazolate (10 mg/kg, p.o.) before and several times after occlusion. A group of eight rats was treated with the reference compound, L-NAME (1 mg/kg, i.p.) before and several times after occlusion. A group of eight rats was only treated with the vehicle. The effects were evaluated by clinical observations, neurological function tests and by establishing the size of the infarction at the end of the study.
# [6] = test system: granular cells of the cerebellum; assay: Toxicity induced by NMDA/serine on granular cells of the cerebellum, MTT test; type: cell-based, Wistar rat; conditions: 100 μM NMDA + 10 μM D-serine, six hours
# Protocol: as §1
# [7] = Single increasing oral dose study in healthy volunteers (tolerance, plasmatic dosage); type: in vivo, human
# Protocol: In this study, single, increasing doses of etazolate (0.5, 1, 2, 5, 10 and 20 mg) were administered orally in the form of capsules dosed at 0.5 and 5 mg to different and sequential groups of eight young, healthy, volunteer subjects of the male sex. This study was carried out in just one centre, double-blind, and two of the eight subjects were given a placebo. The parameters evaluated were clinical (appearance of adverse effects, of clinical signs, change in arterial pressure or heart rate), electrocardiographic (ECG recording) and biological tolerance (hematology and sanguineous biochemistry, urinary examination) for the 24 hrs following administration of the product. A plasmatic dosage of the product was carried out in each subject at different times before and after administration of the product (0.25-0.50-1.00-1.50-2.00-3.00-4.00-5.00-6.00-8.00-10.00-12.00 and 24.00 hours). A urinary dosage of the product was also carried out from urines collected before and after administration of the product (4, 4-8, 8-12 and 12-24 hours).
# old rats = assay: Aquatic labyrinth test (Morris pool) in old rats; type: in vivo, rat
# Description: This test is used to evaluate the capacities to memorise and to manage spatial information in rats in an aversive situation. The task consists for the animal of locating with the help of distance indices a <<refuge >> platform, invisible by immersion in a tank filled with opacified water. The device makes it possible to evaluate the reference memory of the animal (the platform remains in the same place on each day of the test). This test makes it possible to appreciate the […] performances dependent upon the functions of the hippocampus of the animals tested. In particular, this test makes it possible to discriminate between the performances of adult rats (10 months) and those of old rats (30 months). The hippocampus is a cerebral structure the functions of which are altered prematurely in Alzheimer's disease. The Morris pool test is therefore particularly recognised by experts in the field as making it possible to appreciate the pharmacological properties of compounds intended to treat Alzheimer's disease and other diseases associated with a cognitive deficit. Old rats treated with etazolate (3 mg/kg and 10 mg/kg) administered orally and rats treated by the vehicle were used for this study. The performances of these animals in the Morris pool test were compared to those of a control group of adult rats.
structure (smiles),measurement,setting,value
CCOC(=O)c1cnc2c(cnn2CC)c1NN=C(C)C [etazolate],protective effect,[1],50%
same,protective effect,cortical neurons [2],47%
same,protective effect,SH-SY5Y cells,40%
same,protective effect,[3],36%
same,protective effect,cortical neurons [4],40%
same,neurological evaluation relative to the control group,[5]; 10 mg/kg p.o.,improvement
same,reduction of the size of the infarction relative to the control,"[5]; 10 mg/kg p.o. before and several times after occlusion, average",28%
same,hypoactivity,"[5]; 10 mg/kg p.o., control group 42%",31%
same,protective effect,[6],40%
same,secondary effects,"[7]; healthy male volunteers, single oral doses 0.5-20 mg",did not involve any secondary effects
same,"tolerance (clinical, electrocardiographic, biological)","[7]; healthy male volunteers, single oral doses 0.5-20 mg, 24 hrs",well tolerated
same,absorption (plasmatic dosages),"[7]; humans, oral capsules, at strong doses",good absorption
same,performances in the Morris pool test,old rats; 3 mg/kg orally,slightly improves the performances of old rats
same,performances in the Morris pool test,"old rats; 10 mg/kg orally, compared to adult rats",importantly brings the performances of old animals closer to those of adult animals
